Article PMC7438494 (Communications Biology, 2020)
pIC50: −log10 of the molar value. Several values for one entry are separate records, joined by “and”; a condition that tells them apart may be missing. Equal entries are not always repeated. Where two headings read alike, the source gives them in different places.

Legend:
[1] = system: human mitoplasts; assay: Membrane potential of human mitoplasts, fluorescence quenching of Rhodamine 123; format: biochemical; conditions: high concentrations
Description: The membrane potential was assessed by measuring fluorescence quenching of Rhodamine 123 at 488 nm excitation and 525 nm emission in a buffer containing 0.65 M mannitol, 20 mM bis-tris-propane, 2 mM tris-phosphate, 0.3 mM EGTA, pH 6.8 with Rhodamine 123 dissolved in methanol (1.0 µM). Yeast mitochondria were energized with ethanol (0.4% v/v), whereas human mitochondria were energized with glutamate/malate (5 mM/2.5 mM).

[2] = system: human mitochondrial ATP synthase; conditions: reviewer's remark; ref previous reports; read-out: IC50, ATPase activity of human mitochondrial ATP synthase; cited from earlier work
[3] = target: yeast mitochondrial ATP synthase (Saccharomyces cerevisiae, UniProt P00854+P61829); assay: biochemical; conditions: frozen yeast mito, 60 min; for inhibition at 1 µM: read-out: % inhibition; for activity at 6 µM / inhibition at 6 µM: Bedaquiline 6 μM
[4] = 1st exp (1-11-19), Bedaquiline 0.05 μM
[5] = 1st exp (1-11-19), Bedaquiline 0.1 μM
[6] = 1st exp (1-11-19), Bedaquiline 0.5 μM
[7] = 1st exp (1-11-19), Bedaquiline 1 μM
[8] = 1st exp (1-11-19), Bedaquiline 1.4 μM
[9] = 1st exp (1-11-19), Bedaquiline 2 μM
[10] = 1st exp (1-11-19), Bedaquiline 3 μM
[11] = 1st exp (1-11-19), Bedaquiline 4 μM
[12] = 2nd exp (1-29-19), Bedaquiline 0.005 μM (duplicate)
[13] = 2nd exp (1-29-19), Bedaquiline 0.05 μM
[14] = 2nd exp (1-29-19), Bedaquiline 0.1 μM
[15] = 2nd exp (1-29-19), Bedaquiline 0.5 μM
[16] = 2nd exp (1-29-19), Bedaquiline 1 μM
[17] = 2nd exp (1-29-19), Bedaquiline 1.4 μM
[18] = 2nd exp (1-29-19), Bedaquiline 2 μM
[19] = 2nd exp (1-29-19), Bedaquiline 4 μM
[20] = 3rd exp (2-1-19), Bedaquiline 0.005 μM
[21] = 3rd exp (2-1-19), Bedaquiline 0.05 μM

In the case of `COc1nc2ccc(Br)cc2cc1[C@@H](c1ccccc1)[C@@](O)(CCN(C)C)c1cccc2ccccc12` [BDQ, Bedaquiline], the “effect on membrane potential, human mitoplasts” value [1] is given as “partial effect”, the pIC50 [2] is given as 3.70 and the “Cyanide sensitive ATP synthesis” value [3, 4] is given as 49.0688 nmol/min/mg. The activity at 0.05 µM [3, 4] was 106%, the inhibition at 0.05 µM [3, 4] was -6.06% and the “Cyanide sensitive ATP synthesis” value [3, 5] was 39.561 nmol/min/mg. The activity at 0.1 µM [3, 5] was 85.5%, the inhibition at 0.1 µM [3, 5] was 14.5% and the “Cyanide sensitive ATP synthesis” value [3, 6] was 35.6774 nmol/min/mg. The activity at 0.5 µM [3, 6] was 77.1%, the inhibition at 0.5 µM [3, 6] was 22.9% and the “Cyanide sensitive ATP synthesis” value [3, 7] was 21.3622 nmol/min/mg. The activity at 1 µM [3, 7] was 46.2%, the inhibition at 1 µM [3, 7] was 53.8% and the “Cyanide sensitive ATP synthesis” value [3, 8] was 15.4854 nmol/min/mg. For the same compound, the activity at 1.4 µM [3, 8] was 33.5%, the inhibition at 1.4 µM [3, 8] was 66.5% and the “Cyanide sensitive ATP synthesis” value [3, 9] was 8.026 nmol/min/mg. For the same compound, the activity at 2 µM [3, 9] was 17.3%, the inhibition at 2 µM [3, 9] was 82.7% and the “Cyanide sensitive ATP synthesis” value [3, 10] was 3.204 nmol/min/mg. For the same compound, the activity at 3 µM [3, 10] was 6.92%, the inhibition at 3 µM [3, 10] was 93.1% and the “Cyanide sensitive ATP synthesis” value [3, 11] was 1.232 nmol/min/mg. For the same compound, the activity at 4 µM [3, 11] was 2.66%, the inhibition at 4 µM [3, 11] was 97.3% and the activity at 6 µM ([3]; 1st exp (1-11-19)) was 1.64%. For the same compound, the inhibition at 6 µM ([3]; 1st exp (1-11-19)) was 98.4%, the “% activity” value [3, 12] was 96.7896% and the “% inhibition” value [3, 12] was -3.9401% and 3.21%. The “Cyanide sensitive ATP synthesis” value [3, 12] was 54.583 nmol/min/mg and 50.828 nmol/min/mg, the activity at 0.005 µM [3, 12] was 104% and the “Cyanide sensitive ATP synthesis” value [3, 13] was 50.1533 nmol/min/mg. For the same compound, the activity at 0.05 µM [3, 13] was 95.5%, the inhibition at 0.05 µM [3, 13] was 4.5% and the “Cyanide sensitive ATP synthesis” value [3, 14] was 50.0836 nmol/min/mg. For the same compound, the activity at 0.1 µM [3, 14] was 95.4%, the inhibition at 0.1 µM [3, 14] was 4.63% and the “Cyanide sensitive ATP synthesis” value [3, 15] was 46.4023 nmol/min/mg. The activity at 0.5 µM [3, 15] was 88.4%, the inhibition at 0.5 µM [3, 15] was 11.6% and the “Cyanide sensitive ATP synthesis” value [3, 16] was 33.1052 nmol/min/mg. For the same compound, the activity at 1 µM [3, 16] was 63%, the inhibition at 1 µM [3, 16] was 37% and the “Cyanide sensitive ATP synthesis” value [3, 17] was 15.7394 nmol/min/mg. For the same compound, the activity at 1.4 µM [3, 17] was 30%, the inhibition at 1.4 µM [3, 17] was 70% and the “Cyanide sensitive ATP synthesis” value [3, 18] was 6.265 nmol/min/mg. The activity at 2 µM [3, 18] was 11.9%, the inhibition at 2 µM [3, 18] was 88.1% and the activity at 4 µM [3, 19] was 1.16%. It also gave an inhibition at 4 µM [3, 19] of 98.8%, an activity at 6 µM ([3]; 2nd exp (1-29-19)) of 0.645% and an inhibition at 6 µM ([3]; 2nd exp (1-29-19)) of 99.4%. The “Cyanide sensitive ATP synthesis” value [3, 20] was 55.7209 nmol/min/mg, the activity at 0.005 µM [3, 20] was 101% and the inhibition at 0.005 µM [3, 20] was -1.01%. For the same compound, the “Cyanide sensitive ATP synthesis” value [3, 21] was 53.0953 nmol/min/mg, the activity at 0.05 µM [3, 21] was 96.2% and the inhibition at 0.05 µM [3, 21] was 3.75%. For the same compound, the “Cyanide sensitive ATP synthesis” value ([3]; 3rd exp (2-1-19), Bedaquiline 0.1 μM) was 53.6873 nmol/min/mg.
